Measurements: patent publication US20250108036A1, “COMPOSITIONS FOR REMOVING SENESCENT CELLS AND USES THEREOF” (LIFECEUTIX CO., LTD., priority 2021, published 2025)

What was measured:
[1] = system: foreskin cells in which senescence was induced by doxorubicin; assay: CellTiter-Glo cell viability of doxorubicin-induced senescent foreskin cells (Examples 1-2, 10, 11, 13; Tables 4, 63, 65); format: cell-based, human; conditions: doxorubicin-induced senescent foreskin cells, CellTiter-Glo, 0 μM = 100
Protocol: (§1) After 3 days, cell viability was measured using CellTiter-Glo Luminescent Cell Viability Assay (Promega) or light microscopy.

HMGN1 [2] = assay: HMGN1 ELISA in culture medium of foreskin cells (Examples 10, 11; Tables 62, 63, 64); format: cell-based, human; conditions: for HMGN1: 30 μM test compound, doxorubicin-treated foreskin cells, DMSO = 100
HMGN1 [3] = assay: HMGN1 ELISA in culture medium of A549 cancer cells (Example 12, Table 66); format: cell-based, human; conditions: doxorubicin-induced senescent A549 cells, test compound 30 μM, ELISA, DMSO = 100
A549 = assay: CellTiter-Glo cell viability of senescent A549 cancer cells (Example 12, Table 67); format: cell-based, human; conditions: doxorubicin-induced senescent A549 cancer cells, CellTiter-Glo
senescent foreskin cells = assay: survival of senescent foreskin cells treated with medium supernatant (secreted fluid) of compound-killed cells (Example 13, Tables 68, 69); format: cell-based, human; conditions: culture medium supernatant from dying senescent cells treated with compound at 30 μM, 90 μM or 270 μM; senescent foreskin cells
Protocol: as §1
During this additional culture, by checking with an optical microscope, etc., the medium supernatants containing secreted fluid from normally proliferating and senescent cells in which cell death was induced were obtained. The obtained medium supernatant was replaced with the medium of normally proliferating and senescent cells, respectively, and cell survival rate was measured after 3 days.

p16, MMP3, IL6 [4] = assay: p16, MMP3, IL6 mRNA qRT-PCR in liver of naturally aged mice treated with test compounds (Example 15, Table 71); format: in vivo, C57BL6J mice; conditions: liver tissue of naturally aged mice treated with test compound
[5] = open field test in naturally aged mice treated with test compounds (Example 15, Table 71); format: in vivo, C57BL6J mice; conditions: naturally aged mice treated with test compound
p16, MMP3, IL6 [6] = assay: p16, MMP3, IL6 mRNA qRT-PCR in groin fat of obese mice given senescent cells killed by test compounds (Example 16, Table 72); format: in vivo, C57BL6J mice; conditions: obese mice administered senescent cells whose death was induced by the test compound
From the text: To obtain preadipocytes, groin fat tissue was collected from an 8-week-old female C57BL6J mouse (purchased from KRIBB Laboratory Animal Resource Center). The fat tissue was cut into small pieces and treated with collagenase to decompose the fat tissue, then centrifuged to collect the stromal vascular fraction (SVF) containing preadipocytes. It was washed with a washing medium (HBSS, purchased from GenDEPOT; 3.5% Albumin Fraction V, purchased from GenDEPOT; 100 U/ml Penicillin & Streptomycin, purchased from Invitrogen), mixed again, and extracted by filtering through a 100 μm nylon mesh. The isolated preadipocytes were cultured in the designated medium (DMEM, purchased from GenDEPOT; 20% FBS, purchased from GenDEPOT; 100 U/ml Penicillin & Streptomycin, purchased from Invitrogen). In the same manner as Example 1, cells were treated with doxorubicin at a concentration of 250 nM for 24 hours and cultured for an additional 21 days to induce cell senescence. Cells were treated with doxorubicin at a concentration of 250 nM for 24 hours and cultured for an additional 21 days to induce cell senescence. By treating the test compounds in the same manner as in Example 13, it was confirmed using an optical microscope that the death of most senescent cells was induced. The killed preadipocytes were washed using PBS (purchased from Welgene) and then mixed with PBS at a concentration of 5×10^5 cells/200 μl. It was administered subcutaneously to 8-week-old female C57BL6J mice (purchased from KRIBB Laboratory Animal Resource Center). At 7 and 10 days after administration of the killed senescent cells, 2 million senescent preadipocytes were mixed in 200 μl of PBS and administered into the abdominal cavity of mice. After administration of killed senescent cells, obesity was induced in mice with a high-fat diet (DIO) for 8 weeks in the same manner as in Example 9-1. Afterwards, the mouse was sacrificed in the same manner as in Example 7-2, total RNA was extracted from the groin fat tissue, and qRT-PCR was performed and analyzed using the synthesized cDNA. […] The mRNA amount of p16, MMP3, and IL6 without administration of senescent cells whose death was induced by the test compounds was calculated as 100%, and the amount of p16, MMP3, and IL6 after administration of the senescent cells whose death was induced by the test compounds was compared with them. Furthermore, an open field test was performed to analyze aging-related frailty in mice using the same method as Example 7-7. […] The amount of activity evaluation without administration of senescent cells whose death was induced by the test compounds was calculated as 100% and compared it with the amount of activity evaluation after administration of senescent cells whose death was induced by the test compounds. […]

[7] = open field test in obese mice given senescent cells killed by test compounds (Example 16, Table 72); format: in vivo, C57BL6J mice; conditions: obese mice administered senescent cells whose death was induced by the test compound
From the text: To obtain preadipocytes, groin fat tissue was collected from an 8-week-old female C57BL6J mouse (purchased from KRIBB Laboratory Animal Resource Center). The fat tissue was cut into small pieces and treated with collagenase to decompose the fat tissue, then centrifuged to collect the stromal vascular fraction (SVF) containing preadipocytes. It was washed with a washing medium (HBSS, purchased from GenDEPOT; 3.5% Albumin Fraction V, purchased from GenDEPOT; 100 U/ml Penicillin & Streptomycin, purchased from Invitrogen), mixed again, and extracted by filtering through a 100 μm nylon mesh. The isolated preadipocytes were cultured in the designated medium (DMEM, purchased from GenDEPOT; 20% FBS, purchased from GenDEPOT; 100 U/ml Penicillin & Streptomycin, purchased from Invitrogen). In the same manner as Example 1, cells were treated with doxorubicin at a concentration of 250 nM for 24 hours and cultured for an additional 21 days to induce cell senescence. Cells were treated with doxorubicin at a concentration of 250 nM for 24 hours and cultured for an additional 21 days to induce cell senescence. By treating the test compounds in the same manner as in Example 13, it was confirmed using an optical microscope that the death of most senescent cells was induced. The killed preadipocytes were washed using PBS (purchased from Welgene) and then mixed with PBS at a concentration of 5×10^5 cells/200 μl. It was administered subcutaneously to 8-week-old female C57BL6J mice (purchased from KRIBB Laboratory Animal Resource Center). At 7 and 10 days after administration of the killed senescent cells, 2 million senescent preadipocytes were mixed in 200 μl of PBS and administered into the abdominal cavity of mice. After administration of killed senescent cells, obesity was induced in mice with a high-fat diet (DIO) for 8 weeks in the same manner as in Example 9-1. Afterwards, the mouse was sacrificed in the same manner as in Example 7-2, total RNA was extracted from the groin fat tissue, and qRT-PCR was performed and analyzed using the synthesized cDNA. […] The mRNA amount of p16, MMP3, and IL6 without administration of senescent cells whose death was induced by the test compounds was calculated as 100%, and the amount of p16, MMP3, and IL6 after administration of the senescent cells whose death was induced by the test compounds was compared with them. Furthermore, an open field test was performed to analyze aging-related frailty in mice using the same method as Example 7-7. […] The amount of activity evaluation without administration of senescent cells whose death was induced by the test compounds was calculated as 100% and compared it with the amount of activity evaluation after administration of senescent cells whose death was induced by the test compounds.

[8] = chlorhexidine gluconate-induced peritoneal fibrosis in mice (Example 6-2); format: in vivo, C57BL6J mice; conditions: 0.1% CHG 10 ml/kg i.p. every 2 days for 20 days; LX-112 70 mg/kg i.p. daily from day 9
Protocol: After 8-week-old male C57BL6J mice (purchased from KRIBB Laboratory Animal Resource Center) were adapted to the experimental environment for 1 week, the mice were randomized into an experimental group and a control group. To induce peritoneal fibrosis, 0.1% chlorhexidine gluconate (CHG, purchased from Sigma) was dissolved in 15% ethanol phosphate buffer solution and administered intraperitoneally at a concentration of 10 ml/kg every 2 days for 20 days. From day 9, LX-112 was mixed with 0.5% CMC-Na solution (purchased from Sigma) and administered intraperitoneally at a concentration of 70 mg/kg every day. The control group (−) was administered only the solution in the same volume. On the 20th day, paraffin sections of peritoneal tissue prepared by fixation in 4% paraformaldehyde solution were stained with H/E (Hematoxylin/Eosin) and trichrome, and the thickness of the peritoneal mesothelial cell layer was measured under a light microscope.

Splenocyte = conditions: cited from earlier work
[9] = system: foreskin cells in which aging was induced by doxorubicin; assay: cell viability of senescent foreskin cells with caspase inhibitor QVD-Oph (Example 10, Table 61); format: cell-based, human; conditions: ABT-263 1 μM; for Survial (%): doxorubicin-senescent foreskin cells, 3 days
HMGB1 = HMGB1 ELISA in culture medium of senescent foreskin cells (Example 10, Table 62); format: cell-based, human
Protocol: After 6 hours, the amounts of HMGB1 and HMGN1 secreted into the cell culture medium were measured using an enzyme-linked immunosorbent assay (ELISA Kit, purchased from AssayGenie).

[10] = 1 μM, culture medium after 6 hours, senescent foreskin cells
[11] = ABT-263 1 μM or LX-112 10 μM, 6 hours

Row | Molecule | Survival (%) ([1]; 1.1 μM test compound) | Survival (%) ([1]; […] test compound) | HMGN1 (HMGN1 [2]) | HMGN1 (amount of HMGN1 secreted in the cell culture) (HMGN1 [3]) | Survival (%) (A549; 1.1 μM test compound) | Survival (senescent foreskin cells) | IL6 mRNA (%) (p16, MMP3, IL6 [4]) | MMP3 mRNA (%) (p16, MMP3, IL6 [4]) | p16 mRNA (%) (p16, MMP3, IL6 [4]) | Open Field Test Time in Center (%) [5] | IL6 mRNA (%) (p16, MMP3, IL6 [6]) | MMP3 mRNA (%) (p16, MMP3, IL6 [6]) | p16 mRNA (%) (p16, MMP3, IL6 [6]) | Open Field Test Time in Center (%) [7] | other results
1 | S=C(N/N=C1\CCCc2cccnc21)N1CCN(c2ccccn2)CC1 [LX-801] | 50.5% | 48.9% | 265 | 329 | 78.1% | 52.7 | 71.1 (±1.8) % | 76.5 (±4.2) % | 69.4 (±6.9) % | 241.8 (±17.9) % | 79.4 (±4.6) % | 81.7 (±2.9) % | 79.8 (±3.4) % | 216.8 (±12.8) % | Survival (%) ([1]; 10 μM test compound): 28.2%; Survival (%) (A549; 10 μM test compound): 12.7%
2 | CC(=O)OC[C@H]1O[C@@H]([S-])[C@H](OC(C)=O)[C@@H](OC(C)=O)[C@@H]1OC(C)=O.CCP(CC)CC.[Au+] [LX-201, Auranofin, reference compound] | 98.2% | 3% | 291 | 337 | 72.5% | 62.9 | 65.7 (±5.1) % | 77 (±9.6) % | 85 (±8.2) % | 226.4 (±27.6) % | 76.8 (±6.4) % | 67.1 (±9.2) % | 79.5 (±7.6) % | 176 (±22.6) % | 
3 | N=C(NCCCCCCNC(=N)NC(=N)Nc1ccc(Cl)cc1)NC(=N)Nc1ccc(Cl)cc1.O=C(O)[C@H](O)[C@@H](O)[C@H](O)[C@H](O)CO.O=C(O)[C@H](O)[C@@H](O)[C@H](O)[C@H](O)CO [CHG, chlorhexidine gluconate, reference compound] |  |  |  |  |  |  |  |  |  |  |  |  |  |  | Submesothelial Thickness (μm) [8]: 69.1 (±6.4) μm
4 | CC(O)[C@@H]1NC(=O)COCCOCCNC(=O)[C@H](C(C)O)NC(=O)N[C@@H](C(C)O)C(=O)NNC1=O (some centres unmarked) [Example 80] |  |  |  |  |  |  |  |  |  |  |  |  |  |  | Splenocyte proliferation recovery (Splenocyte): Splenocyte proliferation recovery 91%
5 | CC1(C)CCC(c2ccc(Cl)cc2)=C(CN2CCN(c3ccc(C(=O)NS(=O)(=O)c4ccc(N[C@H](CCN5CCOCC5)CSc5ccccc5)c(S(=O)(=O)C(F)(F)F)c4)cc3)CC2)C1 [ABT-263, reference compound] |  |  |  |  |  |  |  |  |  |  |  |  |  |  | Survial (%) ([9]; QVD-Oph 20 μM applied 4 hours before): 98.4 (±2.6) %; Survial (%) ([9]; without QVD-Oph): 23.8 (±5.5) %; inhibition of the death of senescent cells by the caspase inhibitor ([9]; QVD-Oph 20 μM, LX-112 10 μM): completely inhibited; HMGN1 (pg/ml) (HMGN1 [2]; [10]): 105.3 (±13.5) pg/ml; HMGN1 secreted in the culture medium from dying senescent cells (HMGN1 [2]; [11]): no significant change; HMGB1 (pg/ml) (HMGB1; [10]): 462.7 (±21.6) pg/ml; HMGB1 secreted in the culture medium from dying senescent cells (HMGB1; [11]): little change
6 | Decyltriphenylphosphonium [LX-1202] | 22.7% | 3.1% | 289 | 301 | 53.4% | 55.1 | 74.1 (±6.1) % | 40.2 (±22.7) % | 74.2 (±10.4) % | 231 (±23) % | 62.8 (±8.9) % | 70.7 (±7.5) % | 67.2 (±12.1) % | 175.9 (±21.5) % | 
